Measured values from ChEMBL document CHEMBL1201862, “PubChem BioAssay data set” (2004).
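Where inhibition never reached the appropriate level, the endpoint shown equals the highest concentration tested. Otherwise, values were interpolated linearly from a five-concentration, 48-hour dose response in 96-well plates. The concentration for 50% growth inhibition is given as GI50.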 Activity calls are given as the source filed them. Rule as the data show it: active = GI50 up to about 1.1 µM and inactive = higher.

Assays:
Assay in all cases: inhibition of tumour cell growth, NCI panel, 48 h
[1] = tested on: 786-0
[2] = tested on: CAKI-1
[3] = tested on: COLO 205
[4] = tested on: HCT-15
[5] = tested on: HOP-62
[6] = tested on: IGROV-1
[7] = tested on: KM12
[8] = tested on: NCI-H226
[9] = tested on: NCI/ADR-RES
[10] = tested on: OVCAR-3
[11] = tested on: OVCAR-8
[12] = tested on: PC-3
[13] = tested on: SK-MEL-5
[14] = tested on: SN12C
[15] = tested on: SW-620
[16] = tested on: HOP-92
[17] = tested on: HL-60

Measured: GI50

Cc1cc(C)c(C2CC(O)C(CO)O2)cc1C (stereo not given)
inactive: [1] > 100 µM | [2] > 100 µM | [3] > 10 µM | [5] > 100 µM | [6] > 100 µM | [7] > 100 µM | [8] > 100 µM | [9] 67.5 µM | [10] > 100 µM | [11] > 100 µM | [12] > 100 µM | [13] > 100 µM | [14] > 100 µM | [15] > 100 µM
> 100 µM: [4]

COC(=O)C12CCCN1CCC2
> 100 µM: [4]
inactive: [1] > 100 µM | [2] > 100 µM | [3] > 100 µM | [5] > 100 µM | [7] > 100 µM | [8] > 100 µM | [9] > 100 µM | [10] > 100 µM | [12] > 100 µM | [13] > 100 µM | [14] > 100 µM | [15] > 100 µM

c1ccc(-c2nc3ccccc3n3c(CN4CCCCC4)nnc23)cc1
> 100 µM: [4]
inactive: [1] 37.3 µM | [2] > 100 µM | [3] > 100 µM | [5] 28.5 µM | [16] 31.2 µM | [6] 47.9 µM | [8] > 100 µM | [9] > 100 µM | [10] > 100 µM | [11] 99.3 µM | [12] > 100 µM | [13] > 100 µM | [14] > 100 µM | [15] > 100 µM

O=C(CC(O)(C(F)(F)F)C(F)(F)F)C(CCCl)C(O)(C(F)(F)F)C(F)(F)F (stereo not given)
inactive: [1] 32.7 µM | [2] 31.5 µM | [3] 13.8 µM | [17] 16.6 µM | [5] 33.3 µM | [6] 52.5 µM | [7] 42.3 µM | [8] 23.5 µM | [9] 9.89 µM | [10] 11.5 µM | [11] 27.9 µM | [12] 15.5 µM | [13] 23.2 µM | [14] 18.9 µM | [15] 51.6 µM
34.3 µM: [4]

COC(=O)/C=C(C)/C=C\COC1CCCCO1 (stereo not given)
> 100 µM: [4]
inactive: [1] > 100 µM | [2] > 100 µM | [3] > 100 µM | [17] > 100 µM | [5] > 100 µM | [6] > 100 µM | [7] > 100 µM | [8] > 100 µM | [9] > 100 µM | [10] > 100 µM | [11] > 100 µM | [12] > 100 µM | [13] > 100 µM | [14] > 100 µM | [15] > 100 µM

O=[N+]([O-])/C(C(Cl)=C(Cl)Cl)=C1\Nc2ccc([N+](=O)[O-])cc2N1
> 100 µM: [4]
inactive: [1] > 100 µM | [2] 72.1 µM | [3] > 100 µM | [5] > 100 µM | [16] 14.3 µM | [7] > 100 µM | [8] > 100 µM | [9] > 100 µM | [10] > 100 µM | [12] > 100 µM | [13] > 100 µM | [14] 55.7 µM

C[P+](c1ccccc1)(c1ccc(Cl)cc1)c1ccc(Cl)cc1
inactive: [1] 31.3 µM | [3] 10.4 µM | [5] 19.5 µM | [16] 10.3 µM | [6] 4.94 µM | [8] 24.3 µM | [9] > 100 µM | [11] 14.7 µM | [12] 20.2 µM | [13] 2.84 µM | [14] 15.6 µM | [15] 18.5 µM
88.9 µM: [4]
active: [10] 0.183 µM

CCC(=O)C(CCN1CCC(N2C(=O)C(CCC#N)c3ccccc32)CC1)(c1ccccc1)c1ccccc1 (stereo not given)
13.1 µM: [4]
inactive: [1] 12.3 µM | [2] 21.9 µM | [3] 8.97 µM | [17] 4.67 µM | [5] 17.9 µM | [6] 14.6 µM | [7] 13.4 µM | [8] 17.3 µM | [9] 11.5 µM | [10] 10.9 µM | [11] 11.4 µM | [12] 18.5 µM | [13] 10.3 µM | [14] 18 µM | [15] 11.8 µM

CCCCCCc1cc2cc(C(=O)Nc3ccc(F)cc3)c(=N)oc2cc1O
2.51 µM: [4]
inactive: [1] 3.63 µM | [2] 3.09 µM | [3] 30.8 µM | [17] 1.96 µM | [5] 3.28 µM | [6] 1.49 µM | [7] 2.92 µM | [9] 2.67 µM | [10] 3.48 µM | [11] 1.58 µM | [12] 3.37 µM | [13] 1.4 µM | [15] 3.25 µM

Nc1c(-c2ccccc2)c2ccc([N+](=O)[O-])cc2c(=O)n1-c1cccc(C(=O)O)c1
inactive: [1] > 10 µM | [2] > 100 µM | [17] 38.3 µM | [5] > 100 µM | [6] > 100 µM | [7] > 100 µM | [8] > 100 µM | [9] > 100 µM | [10] > 100 µM | [11] > 100 µM | [12] > 100 µM | [13] > 100 µM | [15] > 100 µM
> 100 µM: [4]

CO[C@@]12C[C@@H](CNC(=O)c3cc(Br)c[nH]3)O[C@@H]1NC(=O)N2
inactive: [1] > 100 µM | [2] > 100 µM | [3] > 100 µM | [5] > 100 µM | [6] > 100 µM | [7] > 100 µM | [8] > 100 µM | [9] > 100 µM | [10] > 100 µM | [11] > 100 µM | [12] > 100 µM | [13] > 100 µM | [14] > 100 µM | [15] > 100 µM
> 100 µM: [4]

CCOP(=O)(O)C1C(CO)OC(n2ccc(=O)[nH]c2=O)C1O (stereo not given)
inactive: [1] > 100 µM | [2] > 100 µM | [17] > 100 µM | [5] > 100 µM | [16] > 100 µM | [6] > 100 µM | [7] > 100 µM | [8] > 100 µM | [10] > 100 µM | [11] > 100 µM | [12] > 100 µM | [13] > 100 µM | [14] > 100 µM | [15] > 100 µM
> 100 µM: [4]

[O-][S+](Nc1ccccc1)c1ccc(Cl)cc1 (stereo not given)
75.2 µM: [4]
inactive: [1] > 100 µM | [2] > 100 µM | [3] > 100 µM | [17] > 100 µM | [5] > 100 µM | [6] 24.7 µM | [7] 17.5 µM | [8] > 100 µM | [9] 64.9 µM | [10] > 100 µM | [11] > 100 µM | [13] 35.9 µM | [14] > 100 µM | [15] > 100 µM

S=C(Nc1ccccc1)c1ccc(CN2CCCCC2)s1
18.3 µM: [4]
inactive: [1] 17.6 µM | [2] 20.7 µM | [3] 18.7 µM | [17] 14.9 µM | [5] 26.5 µM | [6] 24 µM | [7] 17.8 µM | [9] 28.6 µM | [10] 48.6 µM | [11] 15.6 µM | [12] 29.7 µM | [13] 16.3 µM | [15] 16.4 µM
